The values below come from US20230330107A1, “METHODS TO PREVENT HIGH-GRADE SEROUS OVARIAN CANCER AND BREAST CANCER BY ADMINISTERING ANTIPROGESTINS” (priority 2020, published 2023).

The test system of one data set is ovariectomized DKO mice. Type of data set: in vivo. From the text: (§1) Generation of DKO and cPR-DKO mice. DKO mice (Dicer1^flox/flox Pten flox/flox Amhr2^cre/+) were generated. A mouse line carrying Pgr^flox/flox, a conditional progesterone receptor (PR) gene (cPR), was provided by Drs. John Lydon and Francesco DeMayo. Conditional PR (Pgr^flox/flox)) mice were crossed with DKO mice, generating cPR- DKO mice (Pgr^flox/floxDicer1^flox/flox Pten^flox/flox Amhr2^cre/+). These Dicer1-Pten double-knockout (DKO) mice developed metastatic HGSCs arising from the fallopian tube with 100% penetrance. […] All DKO mice die of widespread peritoneal metastases. Besides mirroring the clinical features of human HGSC, these mouse HGSCs closely resemble human HGSC with histopathological, molecular, and genomic similarities. Mouse use and experiments were approved by the Institutional Animal Care and Use Committee (IACUC) at Indiana University School of Medicine.
Mouse bilateral ovariectomy. To examine the effect of ovary on HGSC development in the fallopian tube, both ovaries were surgically excised with the fallopian tubes remaining intact in DKO mice. The surgery was performed at 5-6 weeks of age, when there is no sign of tumors in the fallopian tube. These ovary-deficient DKO mice were then monitored for tumor development. Another set of DKO mice without surgery served as controls. Prior to surgery, DKO mice were anesthetized using Avertin (2,2,2,-tribromoethano) (125-250 mg/kg) (Sigma-Aldrich, St. Louis, Missouri, USA). For analgesia, Carprofen (5-10 mg/kg) (TCI America, Portland, OR, USA) was used a one dose pre-operatively and every 12 hours thereafter for 24-48 hours post-operatively.
(§2) Hormone pellet implantation. To evaluate the effects of steroid hormones on HGSC development, upon ovariectomy at 5-6 weeks of age, DKO mice were implanted subcutaneously with a pellet of 17-β estradiol (E2) (0.72 mg/90 days/mouse), progesterone (P4) (25 mg/90 days/mouse), or combined E2 (0.72 mg) & P4 (25 mg). Also, for shorter periods of P4 exposure, ovariectomized DKO mice were treated with a P4 pellet of 2 mg (1 week) or 6 mg (3 weeks). Another set of ovariectomized DKO mice implanted with a placebo (a pellet without hormone) served as controls. […] For a control group, DKO mice received a placebo pellet for mifepristone. After anesthesia, a pellet was inserted subcutaneously (SQ) after a single skin incision (0.5-1.0 cm) on the back near ovary location. The skin incision was closed with either monofilament suture or wound clips. The pellets were purchased from Innovative Research of America (Sarasota, FL, USA).
(§3) Statistical analysis. Statistical analyses were performed using a GraphPad Prism software (Version 8, GraphPad Software, Inc.). P values less than 0.05 were considered statistically significant. Log-rank test was used to compare survival distributions between different experimental groups of mice; Student's t-test to compare hormone levels between placebo-treated ovariectomized DKO mice and progesterone (P4)-treated ovariectomized DKO mice at 1 week, 3 weeks, and 3 months; Student's t-test to compare hormone levels between ovariectomized DKO mice (Ovex) and each experimental group of DKO mice; and Fisher's exact test to analyze PR expression in benign and malignant ovarian tumors.
Progesterone induces HGSC with metastatic potential in ovary-deficient DKO mice. Ovary-deficient DKO mice were treated with steroid hormones. […] Tumor development and mouse survival were then monitored.

Data set [1] can be described thus: Measurement of serum hormone levels (ELISA) in ovariectomized DKO mice. Type of data set: in vivo, mouse. Particulars: P4-treated ovariectomized DKO mice. The procedure:
Measurement of hormone levels. Blood samples were collected in serum separation tubes (BD Microtainer® Tube; 365967; BD Biosciences, San Jose, CA, USA) from DKO mice or ovariectomized DKO mice with or without hormone treatment. Serum was isolated by centrifugating blood at 14,000 rpm for 5 minutes at room temperature. Measurements of serum progesterone (P4), 17-β estradiol (E2), testosterone (T), follicle-stimulating hormone (FSH), and luteinizing hormone (LH) levels were performed using ELISA (enzyme-linked immunoassay: P4, E2, and T) or RIA (radioimmunoassay: FSH and LH) at the Center for Research Ligand Assay and Analysis Core in Reproduction at the University of Virginia.
(An ELISA detects its analyte on a solid surface through an enzyme-linked reagent.)

The test system of data set [2] is DKO mice (Dicer1-Pten double-knockout, HGSC model). Kind of data set: Mifepristone pellet in DKO mice with intact ovaries: HGSC development and survival. Type of data set: in vivo, mouse. The conditions noted are these: for median survival: DKO mice, range in brackets.
Source text: as §1, §2, §3
Progesterone generates its biological effects through the progesterone receptors (PR). Thus, to evaluate further whether progesterone signaling is critical to the development of HGSC with metastatic potential, DKO mice were treated with the PR antagonist mifepristone (RU486), an antiprogestin, that acts by binding to PR and inhibiting the transcription of its target genes. […] As expected, DKO mice treated with a placebo developed primary HGSC coupled with abundant peritoneal HGSC metastases (FIG. 1A-B). […] Histologically, the fallopian tubes from mifepristone-treated mice were composed of cystic and fibrous tissues as well as small segments of carcinoma cells in the stroma, accompanied by limited peritoneal metastasis (FIG. 1E-G).

Where [3] appears, read: mifepristone 3 mg/m for 3 months.
The mark [4] stands for this setting: mifepristone 16.7 mg/m for 6 months.

Values joined by “and” are separate entries in the source; they are usually repeats but may differ in a detail not shown here. Identical values can stand only once. “Also recorded” adds a separate entry of the source.

`C[C@]12CC[C@@H]3c4ccc(O)cc4CC[C@H]3[C@@H]1CC[C@@H]2O` [E2, 17-β estradiol]: the “ovariectomized DKO mice with tumors or swelling in the uterus” value in the data set with ovariectomized DKO mice (female, DKO (Dicer1flox/flox Ptenflox/flox Amhr2cre/+), mouse, in vivo, 3 months) worked out at 90.9%. For the same compound, the “tumor phenotype in ovariectomized DKO mice (in words)” value in the data set with ovariectomized DKO mice (s.c. hormone pellet for 3 months) is listed as “did not produce any tumors in the fallopian tube”.
Consider `CC(=O)[C@H]1CC[C@H]2[C@@H]3CCC4=CC(=O)CC[C@]4(C)[C@H]3CC[C@]12C` [P4, progesterone], for which, in the data set on ovariectomized DKO mice (P4 25 mg pellet for 3 months), the “hazard ratio (HR) of survival vs placebo-treated ovariectomized DKO mice” value is on record as 3.01. Also, the “ovariectomized DKO mice that developed predominantly HGSC in the fallopian tube with widespread peritoneal metastases and ascites” value in the data set on ovariectomized DKO mice (P4 25 mg pellet for 3 months, 32/32 mice) came out at 100%. For the same compound, the median survival with ovariectomized DKO mice (ovariectomized DKO mice, s.c. hormone pellet for 3 months (P4 25 mg; E2 0.72 mg), range in brackets) is 6.5 months of age. Further, the “serum progesterone levels (in words)” value in data set [1] is listed as “elevated serum progesterone levels”.
For the compound `CC#C[C@]1(O)CC[C@H]2[C@@H]3CCC4=CC(=O)CCC4=C3[C@@H](c3ccc(N(C)C)cc3)C[C@@]21C` [mifepristone, (8S,11R,13S,14S,17S)-11-[4-(dimethylamino)phenyl]-17-hydroxy-13-methyl-17-prop-1-ynyl-1,2,6,7,8,11,12,14,15,16-decahydrocyclopenta[a]phenanthren-3-one], the median survival in data set [2] (mifepristone 3 mg/m for 3 months, s.c. pellet from 5-6 weeks of age) was 11.2 (5.9-21.3) months of age; in data set [2] (mifepristone 16.7 mg/m for 6 months, s.c. pellets), 13.1 (6.6-24.3) months of age and 13.1 months of age. For the same compound, the “DKO mice not inhibited by mifepristone (HGSC development and peritoneal metastasis)” value in data set [2] (high dose, 16.7 mg/m for 6 m, 2/21 mice) is recorded as 9.5%. The “DKO mice that still developed fallopian tube HGSC and widespread peritoneal metastases” value in data set [2] (low-dose group, 3 mg/m, 7/21 mice) came out at 33.3%. Moreover, the figures for the “hazard ratio (HR) of survival vs placebo-treated DKO mice” value in data set [2] (setting [3]) and in data set [2] (setting [4]) were 0.40 and 0.13, respectively. Moreover, the “lived longer than DKO mice with placebo” value in data set [2] (setting [3]) is recorded as about 4 months. Also, the “effect on HGSC development and peritoneal metastasis (in words)” value was “developed little peritoneal metastasis; also recorded: effectively suppressed HGSC development in the fallopian tube and peritoneal metastasis” in data set [2] (mifepristone 3 mg/m for 3 months vs placebo); “effectively suppressed HGSC development and peritoneal metastasis” in data set [2] (mifepristone 16.7 mg/m for 6 m). The “lived longer than placebo-treated DKO mice” value in data set [2] (setting [4]) is recorded as about 6 months.
